In article PMC8522722, “Safety and Pharmacokinetics in Human Volunteers of Taniborbactam (VNRX-5133), a Novel Intravenous β-Lactamase Inhibitor” (Antimicrobial Agents and Chemotherapy, 2021):

Legend:
[1] = Multiple-ascending-dose (MAD) pharmacokinetics in plasma and urine, healthy adult volunteers; assay type: in vivo, human; details: for AUCtau / Cmax / CLR,SS / CLSS / Vz / t1/2 / Ae / Fe: mean (%CV); for Tmax: median (range); for t1/2: terminal elimination; for Ae / Fe: urine through the dosing interval (8 h); for AUCtau mean ratio, last dose compared to first dose: day 10 vs day 1
Method: Eligible subjects were randomized to receive either taniborbactam or placebo in a 3:1 ratio within dose cohorts in both the SAD and MAD parts of the study. Each dose cohort in the SAD part of the study enrolled 8 subjects, and each dose cohort in the MAD part of the study enrolled 12 subjects. In the SAD part, subjects received 62.5, 125, 250, 500, 1,000, or 1,500 mg taniborbactam as a 2-h intravenous (i.v.) infusion. In the MAD part, subjects received 2-h intravenous i.v. infusions of 250, 500, or 750 mg taniborbactam q8h over 10 days, ending after a final morning dose on day 10 (total of 28 doses).
Blood samples for assay of taniborbactam in plasma were collected predose and at 1, 2, 2.25, 2.5, 2.75, 3, 4, 6, 8, 12, 26, and 50 h after the start of drug infusion in the SAD part. For the MAD part, blood samples to determine taniborbactam plasma concentrations were collected predose and at 1, 2, 2.25, 2.5, 2.75, 3, 4, 6, and 8 h following the first dose (day 1) and predose and at 1, 2, 2.25, 2.5, 2.75, 3, 4, 6, 10, 14, and 26 h following the last dose (day 10). Urine was collected predose and at intervals of 0 to 4, 4 to 8, 8 to 24, and 24 to 48 h after the start of the infusion in the SAD part for the higher-dose groups (500 to 1,500 mg taniborbactam). For the MAD part, urine was collected through the dosing interval following the last dose using collection intervals of 0 to 4 and 4 to 8 h after the start of the infusion. At the end of each urine collection interval, the volume of each urine collection was recorded and a sample was taken.
Plasma and urine samples were assayed for taniborbactam and screened for possible metabolites. Human dipotassium ethylenediaminetetraacetic acid (K2EDTA) plasma samples were processed using protein precipitation and assayed using ultra-high-performance liquid chromatography with tandem mass spectrometric detection (LC-MS/MS). Both low- and high-range methods were developed and validated for plasma samples, with calibration ranges of 5 to 5,000 ng/ml and 100 to 100,000 ng/ml, respectively. Acidified urine samples were processed using solid-phase extraction and assayed using a validated LC-MS/MS method with a calibration range of 5.0 to 5,000 ng/ml. For both matrices, separation was accomplished using a Waters Acquity HSS T3 column (Milford, MA) at 50°C, and gradient elution using 10 mM ammonium formate with 1% formic acid as mobile phase A and 50:50:1 acetonitrile:methanol:formic acid (vol/vol/vol) as mobile phase B. A triple quadrupole mass spectrometer (API Triple Quad 5500; AB Sciex, Framingham, MA) equipped with a turbo-ion spray set was used for detection in positive ion mode, and quantification was based on multiple reaction monitoring. The internal standard used in the assays was D4-taniborbactam.
Individual subject plasma and urine taniborbactam pharmacokinetic parameters were evaluated using noncompartmental analysis methods (Phoenix WinNonlin, Certara, Princeton, NJ). Single-dose pharmacokinetic parameters were determined in the SAD part, and both single-dose (day 1) and multiple-dose (day 10) pharmacokinetic parameters were determined in the MAD part. Estimated pharmacokinetic parameters included Cmax, time to Cmax (Tmax), AUCtau, AUC0–inf, t1/2, CL, VZ, Ae, Fe, and CLR. The actual sample times were used to calculate the pharmacokinetic parameters. Calculation of λZ was based on best fit of concentrations in the observed terminal elimination phase of a profile, and statistical inclusion of any parameter based on λZ required the goodness of fit statistic (R^2) to be greater than 0.8. Pharmacokinetic data were summarized using descriptive statistics by treatment. Dose proportionality based on Cmax and AUC was determined using linear regression to calculate the slope and 90% CI and observing whether a slope of 1 was included in the confidence interval. The dose proportionality analysis included subject body weight as a covariate in the analysis.

[2] = parameters: species or system human; details: in vivo
Excerpt: To assess possible metabolites of taniborbactam, plasma and urine samples were pooled across subjects by time points, processed, and analyzed by ultra-high performance liquid chromatography tandem mass spectrometry with a quadrupole time-of-flight mass spectrometer, for acquisition of high-resolution accurate mass data, in positive mode with electrospray ionization, incorporating in-line UV detection with a photodiode array detector (Waters Acquity UPLC). The acquired chromatographic and mass spectral data were compared to analogous data obtained for the corresponding predose and placebo-dose samples to identify metabolites potentially associated with taniborbactam metabolism. Chromatographic peaks observed to be unique to the samples were subject to investigation by mass spectrometric techniques.

[3] = test system: Pseudomonas aeruginosa isolates; parameters: method as in ref 13, 14 = [13]; 13 Vidales A , Hackel M , Wise M , Sahm D . 2020 . Antimicrobial activity of cefepime in combination with taniborbactam (formerly VNRX-5133) against clinical isolates of Enterobacterales collected fro || [14]; 14 Kalamatas J , Hackel M , Wise M , Sahm D . 2020 . Antimicrobial activity of cefepime in combination with taniborbactam (formerly VNRX-5133) against a 2018–2019 surveillance collection of Pseudomona; details: cited from earlier work

NCCN[C@H]1CC[C@H](CC(=O)N[C@H]2Cc3cccc(C(=O)O)c3OB2O)CC1 [Taniborbactam]
AUCtau ([1]; 250 mg q8h, day 1): 34,447 (17.2) h · ng/ml
Cmax ([1]; 250 mg q8h, day 1): 10,544 (18.3) ng/ml
Tmax ([1]; 250 mg q8h, day 1): 2.0 (2.0, 2.1) h
AUCtau ([1]; 250 mg q8h, day 10): 41,563 (15.1) h · ng/ml
CLR,SS ([1]; 250 mg q8h, day 10): 5.2 (17.3) liters/h
CLSS ([1]; 250 mg q8h, day 10): 6.2 (15.9) liters/h
Cmax ([1]; 250 mg q8h, day 10): 11,188 (16.5) ng/ml
Vz ([1]; 250 mg q8h, day 10): 36.0 (28.3) liters
Tmax ([1]; 250 mg q8h, day 10): 2.0 (2.0, 2.1) h
t1/2 ([1]; 250 mg q8h, day 10): 4.1 (29.3) h
Ae ([1]; 250 mg q8h, day 10): 211.0 (11.8) mg
Fe ([1]; 250 mg q8h, day 10): 84.4 (11.8) %
Fe ([1]; 250 mg q8h, day 10, listed as taniborbactam): 84.4%
AUCtau mean ratio, last dose compared to first dose ([1]; 250 mg q8h): 1.21
AUCtau ([1]; 500 mg q8h, day 1): 81,890 (14.7) h · ng/ml
Cmax ([1]; 500 mg q8h, day 1): 25,778 (15.2) ng/ml
Tmax ([1]; 500 mg q8h, day 1): 2.0 (2.0, 2.1) h
AUCtau ([1]; 500 mg q8h, day 10): 89,103 (13.8) h · ng/ml
CLR,SS ([1]; 500 mg q8h, day 10): 5.3 (14.2) liters/h
CLSS ([1]; 500 mg q8h, day 10): 5.7 (12.6) liters/h
Cmax ([1]; 500 mg q8h, day 10): 26,533 (13.0) ng/ml
Vz ([1]; 500 mg q8h, day 10): 39.8 (14.3) liters
Tmax ([1]; 500 mg q8h, day 10): 2.0 (2.0, 2.3) h
t1/2 ([1]; 500 mg q8h, day 10): 4.9 (13.3) h
Ae ([1]; 500 mg q8h, day 10): 462.2 (10.2) mg
Fe ([1]; 500 mg q8h, day 10): 92.4 (10.2) %
Fe ([1]; 500 mg q8h, day 10, listed as taniborbactam): 92.4%
AUCtau mean ratio, last dose compared to first dose ([1]; 500 mg q8h): 1.09
AUCtau ([1]; 750 mg q8h, day 1): 119,140 (18.0) h · ng/ml
Cmax ([1]; 750 mg q8h, day 1): 39,122 (23.7) ng/ml
Tmax ([1]; 750 mg q8h, day 1): 2.0 (2.0, 2.3) h
AUCtau ([1]; 750 mg q8h, day 10): 139,518 (21.6) h · ng/ml
CLR,SS ([1]; 750 mg q8h, day 10): 5.2 (28.6) liters/h
CLSS ([1]; 750 mg q8h, day 10): 5.6 (21.1) liters/h
Cmax ([1]; 750 mg q8h, day 10): 38,778 (18.2) ng/ml
Vz ([1]; 750 mg q8h, day 10): 37.4 (19.9) liters
Tmax ([1]; 750 mg q8h, day 10): 2.0 (2.0, 2.3) h
t1/2 ([1]; 750 mg q8h, day 10): 4.7 (15.4) h
Ae ([1]; 750 mg q8h, day 10): 692.2 (21.7) mg
Fe ([1]; 750 mg q8h, day 10): 92.3 (21.7) %
Fe ([1]; 750 mg q8h, day 10, listed as taniborbactam): 92.3%
AUCtau mean ratio, last dose compared to first dose ([1]; 750 mg q8h): 1.17
administered dose recovered in urine as intact drug ([1]; at steady state): approximately 90%
biotransformation products with a detectable UV response in pooled plasma samples [2]: no significant taniborbactam biotransformation products
potentiation of cefepime activity as measured by the MIC90 [3]: 4 fold
